Source: publication PMC3791137 (Journal of the American Chemical Society, 2013)

Experiments:
[1] = pH 9.5, excitation 572 nm; cited from earlier work
[2] = common buffers, physiological pH; cited from earlier work
NSCs = assay: Sin-1-induced ZBR1 fluorescence change; format: cell-based, rat; conditions: 100 μM Sin-1, first 15 min; vehicle 105 ± 7%

Compound | Quantum yield (standard) [1] | Half-life [2] [min] | Fluorescence intensity of ZBR1 after Sin-1 (NSCs) [%]
O=c1ccc2nc3ccc(O)cc3oc-2c1 [resorufin] | 0.74 | – | –
N=c1c[n+](N2CCOCC2)[n-]o1 [Sin-1, 3-morpholinosydnonimine] | – | 14 to 26 | 89 ± 4
